Laboratory results from patent US10975087B2, “Solid forms of tetrahydropyranyl amino-pyrrolopyrimidinone compounds” (ArQule, Inc., priority 2018, dated 2021).

How the values were obtained:
Type in all cases: physicochemical
[1] = Form conversion under ambient or vacuum drying conditions
[2] = Dynamic vapor sorption (DVS); conditions: for Post-DVS XRPD analysis (form): after exposure to elevated humidity; for moisture uptake by DVS: at 90% RH
Description: Approximately 10-20 mg of sample was placed into a mesh vapor sorption balance pan and loaded into a DVS-1 dynamic vapor sorption balance by Surface Measurement Systems. […] After completion of the sorption cycle, the sample was dried using the same procedure to 0% RH and then a second sorption cycle back to 40% RH. Two cycles were performed. The weight change during the sorption/desorption cycles were plotted, allowing for the hygroscopic nature of the sample to be determined. XRPD analysis may be then carried out on any solid retained.

[3] = Gravimetric vapor sorption (GVS)
Description: Approximately 10-20 mg of sample was placed into a mesh vapor sorption balance pan and loaded into an IGASorp Moisture Sorption Analyzer balance by Hiden Analytical. The sample was subjected to a ramping profile from 40-90% relative humidity (RH) at 10% increments, maintaining the sample at each step until a stable weight had been achieved (98% step completion). After completion of the sorption cycle, the sample was dried using the same procedure to 0% RH, and finally taken back to the starting point of 40% RH. Two cycles were performed. The weight change during the sorption/desorption cycles were plotted, allowing for the hygroscopic nature of the sample to be determined.

[4] = Acetone solubility; conditions: form of residual solid; amorphous input: Form 2 residual solid with additional peaks
Description: Aqueous and acetone solubility was carried out using 3-10 mg of material, depending on availability, and slurrying in 150-200 μL of acetone or 300 μL of deionized water. The samples were agitated at ambient temperature then filtered by centrifugation (0.22 μm nylon filter) after ca. 24 hours and the solids analyzed by XRPD as damp solids. The filtrates were analyzed by HPLC for concentration determination. The water solubility was too low for detection using the current analytical method.

[5] = Aqueous solubility; conditions: water, thermodynamic from solid, solvent addition method
[6] = Acetone solubility; conditions: organic solvent or mixture, thermodynamic from solid, partial dissolution, solvent addition method
[7] = 7 day stability testing, open vials at 40° C./75% RH, ambient and 80° C.; conditions: 40° C./75% RH, 80° C., and ambient temperature, 1 week
[8] = Accelerated storage conditions (75% RH/40° C. for 72 hours), XRPD
[9] = Salt disproportionation studies (slurry in deionized water); conditions: 48 hours
Description: Samples of salts described herein were prepared for disproportionation studies. Approximately 15 mg of the salt material was suspended in 4 mL of deionized water at ambient temperature (ca. 22° C.). The slurry of the salt was shaken at ambient temperature and analyzed after: 1 h, 24 h, and 48 h. Each sample was filtered using a centrifuge filter. The solid was analyzed by XRPD. pH measurements were performed for the solution (three pH measurements were carried out for each sample and the average pH was calculated).

[10] = Thermodynamic solubility pH measurements; conditions: respective buffer, 25° C., 48 hours
Description: After 2 hours at 25° C., the pH of each slurry was measured and the pH was adjusted, where required. After 24 hours at 25° C., the pH of each slurry was measured and the pH was adjusted, where required. After 48 hours at 25° C., the slurries were separated by centrifugation. The solids were analyzed by XRPD, while the pH of the separated liquors were also measured.

[11] = Hydration studies in water/acetone mixtures; conditions: for Hydration study result (solid by XRPD): 5 days
Description: Hydration experiments were performed at 25° C. and 50° C. in water/acetone mixtures with the following water content (volume %): 2%, 5%, and 20%. The samples were prepared by adding 250 μL of the water/acetone mixture to 15 mg of the salt sample. The samples were stirred at 25° C. or at 50° C. After 2 days, the samples were inspected for the presence of solid. If solid was not observed, additional salt material was added to the dissolved samples. Samples were stirred for an additional 3 days. After 5 days, samples were filtered and the solid obtained was analyzed by XRPD.

[12] = Karl Fischer coulometric titration (KF) water content
Description: Approximately 10-30 mg of solid material was accurately weighed into a vial. The solid was then manually introduced into the titration cell of a Mettler Toledo C30 Compact Titrator. The vial was back-weighed after the addition of the solid and the weight of the added solid entered on the instrument. Titration was initiated once the sample had fully dissolved in the cell. The water content was calculated automatically by the instrument as a percentage and the data printed.

With `O=C(c1ccc(Oc2ccccc2)cc1Cl)c1c[nH]c2ncnc(N[C@@H]3CC[C@@H](CO)OC3)c12.O=S(=O)(O)c1cccc2c(S(=O)(=O)O)cccc12` [1,5-naphthalene disulfonic acid Form 2] as the compound, how does the “form conversion under vacuum drying conditions” value [1] read?
Its value is “converts 1,5-naphthalene disulfonic acid Form 4”.

For `O=C(c1ccc(Oc2ccccc2)cc1Cl)c1c[nH]c2ncnc(N[C@@H]3CC[C@@H](CO)OC3)c12` [amorphous Compound A, (2-chloro-4-phenoxyphenyl)(4-(((3R,6S)-6-(hydroxymethyl)tetrahydro-2H-pyran-3-yl)amino)-7H-pyrrolo[2,3-d]pyrimidin-5-yl)methanone], which “hygroscopic nature by DVS” value [2] is on record?
The value was “hygroscopic”.

What about the “Post-DVS XRPD analysis (form)” value [2] of the same compound?
The value was “remain amorphous”.

What about the “moisture uptake by DVS” value [2] of the same compound?
The value was 3.9%.

And the “XRPD post GVS” value ([3]; cell wraps: Remained | unchanged)?
The value was “Remained”.

And the “GVS (hygroscopicity)” value ([3]; summary Table 11)?
The value was 3.9% uptake.

And the “Acetone solubility: residual solid” value [4]?
The value was “(Form 2 residual”.

What about the Solubility [5] of the same compound?
Its Solubility is < 10 mg/mL.

What about the Solubility [6] of the same compound?
The Solubility was ≥ 16 mg/mL.

With `Cl.O=C(c1ccc(Oc2ccccc2)cc1Cl)c1c[nH]c2ncnc(N[C@@H]3CC[C@@H](CO)OC3)c12` [hydrochloride Form 1] as the compound, how does the “form conversion under ambient conditions” value ([1]; ambient conditions) read?
The value was “gradually converts to hydrochloride Form 2”.

Which “form conversion under vacuum drying conditions” value [1] does the source give for `O=C(O)C(=O)O.O=C(c1ccc(Oc2ccccc2)cc1Cl)c1c[nH]c2ncnc(N[C@@H]3CC[C@@H](CO)OC3)c12` [oxalate Form 1] here?
The value was “converts to oxalate Form 5”.

Which results are given for `O=C(c1ccc(Oc2ccccc2)cc1Cl)c1c[nH]c2ncnc(N[C@@H]3CC[C@@H](CO)OC3)c12.O=P(O)(O)O` [phosphate Form 1]?
Post-DVS XRPD analysis (form) [2]: no change in form from the input material; moisture uptake by DVS [2]: ca. 3.2%; XRPD analysis after storage for 1 week [7]: no change in form from the input material; stability under accelerated storage conditions (XRPD) [8]: stable; XRPD after salt disproportionation study, 48 hours [9]: no change from the input material; XRPD after thermodynamic solubility studies [10]: no change from the input material; solid obtained in hydration study (XRPD) ([11]; 2% and 5% water in acetone, 25° C.): recovered; solid obtained in hydration study (XRPD) ([11]; 2% water in acetone, 50° C.): potentially new form; Hydration study result (solid by XRPD) ([11]; 2% water in water/acetone, 25° C., Form = form of the same salt): Form 1; Hydration study result (solid by XRPD) ([11]; 2% water in water/acetone, 50° C., Form = form of the same salt): Form 1; Hydration study result (solid by XRPD) ([11]; 5% water in water/acetone, 25° C., Form = form of the same salt): Form 1; Hydration study result (solid by XRPD) ([11]; 5% water in water/acetone, 50° C., Form = form of the same salt): Form 6; Hydration study result (solid by XRPD) ([11]; 20% water in water/acetone, 25° C.): Gum; Hydration study result (solid by XRPD) ([11]; 20% water in water/acetone, 50° C.): Gum; solid obtained in hydration study ([11]; the other experiments (remaining water contents/temperatures)): gum; KF moisture (water) content [12]: 3.74%
